Reference: patent US11925611B2, “Use of ZT-1A and analogs thereof to prevent and/or treat neurodegenerative and neurocognitive disorders” (United States Government as Represented by the Department …, priority 2021, dated 2024)
Where two headings read alike, the source gives them in different places.

Columns and labels:
Format in all cases: cell-based
SPAK = SPAK (Homo sapiens, UniProt Q9UEW8); experiment: Cellular inhibition of SPAK phosphorylation (pSer373); conditions: 50% inhibition of phosphorylation, n = 3, — = no inhibition
Excerpt: (§1) 8. Cellular Activity Profile of Inhibitors with the Salicyclic Amide
(§2) A list of the compounds evaluated for their ability to inhibit phosphorylation of SPAK/NKCC1/KCC3 activity is illustrated in Table 1 below.

KCC3 = experiment: Cellular inhibition of KCC3 phosphorylation (pThr991, pThr1048); conditions: Isotonic conditions; n = 3; — = no inhibition; read-out: KCC3 pThr1048 (μM) Iso
Excerpt: as §1, §2

NKCC1 = experiment: Cellular inhibition of NKCC1 phosphorylation (pThr203); conditions: n = 3, — = no inhibition
Excerpt: as §1, §2

[1] = Hypotonic conditions, read-out: SPAK pSer373 (μM) hypo
[2] = Isotonic conditions, read-out: SPAK pSer373 (μM) Iso
[3] = Hypotonic conditions, read-out: NKCC1 pThr203 (μM) hypo
[4] = Isotonic conditions, read-out: NKCC1 pThr203 (μM) Iso

Compound | IC50 (SPAK; [1]) | IC50 (SPAK; [2]) | IC50 (KCC3) | IC50 (NKCC1; [3]) | IC50 (NKCC1; [4])
Cc1cc(C(C#N)c2ccc(Cl)cc2)c(Cl)cc1NC(=O)c1ccccc1S (stereo not drawn) [1c (ZT-05-037-01)] | 3 µM | 3 µM | 3 µM | 3 µM | 1 µM
Cc1cc(C(C#N)c2ccc(Cl)cc2)c(Cl)cc1NC(=O)c1ccccc1N (stereo not drawn) [1d(ZT-06-022-01)] | 3 µM | 3 µM | 3 µM | 3 µM | 1 µM
Cc1cc(C(C#N)c2ccc(Cl)cc2)c(Cl)cc1NC(=O)c1cc(Cl)cc(Cl)c1O (stereo not drawn) [1f] | 3 µM | 3 µM | 3 µM | 3 µM | 1 µM

The remaining lines, values ahead:

IC50 (SPAK; [1]) | IC50 (SPAK; [2]) | IC50 (KCC3) | IC50 (NKCC1; [3]) | IC50 (NKCC1; [4]) | Compound
3 µM | 3 µM | 3 µM | 1 µM | 3 µM | Cc1cc(C(C#N)c2ccc(Cl)cc2)c(Cl)cc1NC(=O)c1ccccc1O (stereo not drawn) [1b]
3 µM | 3 µM | 3 µM | 3 µM | 1 µM | Cc1cc(C(C#N)c2ccc(Cl)cc2)c(Cl)cc1NC(=O)c1cc(F)ccc1O (stereo not drawn) [1g(ZT-06-055-01)]
3 µM | 3 µM | 3 µM | 3 µM | 1 µM | Cc1cc(C(C#N)c2ccc(Cl)cc2)c(Cl)cc1NC(=O)c1cccc(F)c1O (stereo not drawn) [1h(ZT-06-039-01)]
